The values that follow come from paper PMC10220878 (Pharmaceutics, 2023).

As a reminder, the Papp B→A is the apparent permeability from the basolateral to the apical side of a cell layer. One may read the Papp A→B as how fast a substance crosses the layer from the apical side. In general, Km refers to the concentration of substrate that gives half-maximal velocity. The term IC50 denotes the point on the concentration scale where inhibition reaches its midpoint.

In one data set the test system is bEnd.3 cells. Briefly: MTS cell viability assay in bEnd.3 cells. In general terms: Tetrazolium dyes change colour on reduction, which living cells bring about.
Data set [1] has as its system in vitro co-culture model of BBB (bEnd.3 cells and mouse primary astrocytes). In words: NaF permeability across BBB co-culture (barrier integrity). It is filed as in vitro ADME. The conditions noted are these: Figure S1.
The test system of a further data set is mouse primary astrocytes. In words: MTS cell viability assay in mouse primary astrocytes. It is filed as cell-based. The following applies: 3 h, concentrations used in permeability studies (MF 1, 10, 20 mM; mitoxantrone 25 µM; corticosterone 150 µM).
The target in the next data set is T1, P-GP (Homo sapiens, UniProt P08183).
T1 construct: host or cells: MDR1-MDCK (MDCK cells overexpressing MDR1)
T1 sequence (P08183 whole entry): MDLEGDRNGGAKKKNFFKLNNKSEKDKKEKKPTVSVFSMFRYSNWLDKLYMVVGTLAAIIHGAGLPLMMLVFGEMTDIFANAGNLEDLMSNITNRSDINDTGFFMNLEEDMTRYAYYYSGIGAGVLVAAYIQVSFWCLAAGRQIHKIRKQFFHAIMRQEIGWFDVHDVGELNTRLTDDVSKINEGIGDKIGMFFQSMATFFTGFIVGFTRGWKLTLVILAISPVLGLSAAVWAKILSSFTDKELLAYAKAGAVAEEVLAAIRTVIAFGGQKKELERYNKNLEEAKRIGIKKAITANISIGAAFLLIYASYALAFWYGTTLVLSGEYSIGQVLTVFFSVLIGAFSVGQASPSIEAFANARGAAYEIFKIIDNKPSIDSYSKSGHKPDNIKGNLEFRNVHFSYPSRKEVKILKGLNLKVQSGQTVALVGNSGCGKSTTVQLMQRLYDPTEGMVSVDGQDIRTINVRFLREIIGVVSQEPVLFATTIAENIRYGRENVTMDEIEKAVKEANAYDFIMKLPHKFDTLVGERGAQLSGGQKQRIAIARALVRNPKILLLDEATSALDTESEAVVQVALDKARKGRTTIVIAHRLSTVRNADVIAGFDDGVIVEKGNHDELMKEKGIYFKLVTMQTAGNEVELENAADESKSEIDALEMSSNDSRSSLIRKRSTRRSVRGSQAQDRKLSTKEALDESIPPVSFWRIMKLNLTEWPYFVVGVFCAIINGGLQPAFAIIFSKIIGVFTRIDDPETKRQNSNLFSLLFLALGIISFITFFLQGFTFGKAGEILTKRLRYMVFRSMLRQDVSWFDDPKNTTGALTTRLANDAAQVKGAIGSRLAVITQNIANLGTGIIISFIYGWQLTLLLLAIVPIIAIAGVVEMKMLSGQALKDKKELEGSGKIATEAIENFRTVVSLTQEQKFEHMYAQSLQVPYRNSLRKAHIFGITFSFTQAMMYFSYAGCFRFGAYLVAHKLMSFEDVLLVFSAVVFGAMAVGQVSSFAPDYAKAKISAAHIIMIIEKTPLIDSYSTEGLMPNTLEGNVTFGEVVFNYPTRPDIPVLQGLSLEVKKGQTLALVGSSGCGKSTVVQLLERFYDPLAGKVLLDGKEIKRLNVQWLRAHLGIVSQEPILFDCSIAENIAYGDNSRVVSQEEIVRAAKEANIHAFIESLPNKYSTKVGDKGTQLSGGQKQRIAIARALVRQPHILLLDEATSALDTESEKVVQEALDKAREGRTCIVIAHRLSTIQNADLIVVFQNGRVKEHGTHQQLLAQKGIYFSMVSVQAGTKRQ
Briefly: P-glycoprotein efflux transporter substrate assay (MDR1-MDCK transwell). It is filed as in vitro ADME. Here is the method:
(§1) For P-GP efflux assay, MDR1-MDCK 12-well transport assay (MB Biosciences LLC, Natick, MA, USA) was used. The cells were maintained in high glucose DMEM media supplied with 10% FBS, non-essential amino acid, penicillin/streptomycin, L-glutamine, and colchicine as recommended by the supplier. After the shipping medium was changed to a fresh MDR1-MDCK cell culture medium, the plate was kept in the incubator for 24 h before performing the experiment. […] The inhibitor was present on both sides of the compartments during pre-incubation of 30 min and during the transport experiment. After 120 min of incubation at 37 °C, samples were collected from the basolateral chamber and quantified by LC-MS/MS method. […] The permeability coefficient (PC, cm/s) was calculated using the published literature method. The PC value from apical (A) to basolateral (B) compartment in the presence and absence of CsA was used to calculate the unidirectional flux ratio (UFR), which is defined by the following equation:(3) UFR=PC, A−to−B+CsA/PC,A−to−B−CsA

A further data set deals with T2, P-gp (MDR1) (Homo sapiens, UniProt P08183).
T2 construct: host or cells: MDR1-MDCK (MDCK cells overexpressing MDR1)
T2 sequence (P08183 whole entry): as above
The description is as above. It is filed as in vitro ADME. The following applies: dog, MDR1-MDCK, 10 µM MF, 120 min. The procedure: as §1

In another data set the test system is Oct-1. The following applies: cited from earlier work; for IC50: read-out: IC50 for 10 µM Metformin Uptake, Oct-1, 10 µM metformin.
Another data set deals with Oct-2. The conditions noted are these: cited from earlier work; for IC50: read-out: IC50 for 10 µM Metformin Uptake, Oct-2, 10 µM metformin.
Another data set has as its system Oct-3. The conditions noted are these: cited from earlier work; for IC50: read-out: IC50 for 10 µM Metformin Uptake, Oct-3, 10 µM metformin.
The next data set concerns hOCT2. The conditions noted are these: read-out: apparent IC50 of MF for uptake of tracer [14C] MF; cited from earlier work.
The conditions of data set [2]: human subjects; cited from earlier work.
Where [3] appears, read: single transporter-expressing cell line, read-out: apparent Km of saturable MF uptake.
[4] abbreviates: 3 h, concentrations used in permeability studies (MF 1, 10, 20 mM; mitoxantrone 25 µM; corticosterone 150 µM).

Several values for one entry are separate records, joined by “and”; a condition that tells them apart may be missing. Equal entries are not always repeated. Entries after “also recorded” stand apart in the source; their conditions may differ.

For the molecule `C[n+]1ccc(-c2ccccc2)cc1` [MPP+], in the data set on bEnd.3 cells (5 mM, 4 h incubation), the “toxicity to cells (MTS cell viability)” value is “toxic; also recorded: significantly affected”.
In the case of `O=C([O-])c1ccccc1-c1c2ccc(=O)cc-2oc2cc([O-])ccc12.[Na+].[Na+]` [NaF, sodium fluorescein], in data set [1], the “PC of NaF compared with [14C] sucrose” value is given as “no statistically significant difference”.
As to `CNCCCN1c2ccccc2CCc2ccccc21` [desipramine], the “toxicity to cells (MTS cell viability)” value in the data set with bEnd.3 cells (200 µM, 4 h incubation) is “toxic; also recorded: significantly affected”; in the data set with bEnd.3 cells (100 µm, 4 h incubation) it was “significantly affected”.
In the case of `CN(C)C(=N)N=C(N)N` [MF, metformin], the “toxicity to cells (MTS cell viability)” value with mouse primary astrocytes and with bEnd.3 cells (setting [4]) was “not toxic” throughout. On P-GP (MDR1-MDCK, 10 µM MF, 120 min, with CsA 10 µM), the “Metformin PC, A > B, +CsA” value is listed as 3.28 ± 0.06 1 × 10^−7 cm/s. Besides, the “interaction with the efflux transporter P-GP” value at P-GP (P-GP overexpressing cell line) is on record as “does not interact”. The molecule also returned a Papp B→A at 120 min, 10 µM at P-gp (MDR1) of 0.163 ± 0.006 ×10⁻⁶ cm/s. In addition, the Papp A→B at 120 min, 10 µM on P-gp (MDR1) (without CsA) was determined as 0.258 ± 0.018 ×10⁻⁶ cm/s. The Km is 3100 µM with Oct-1 (setting [3]), 600 µM in the data set on Oct-2 (setting [3]) and 2600 µM in the data set on Oct-3 (setting [3]). Moreover, in the data set on hOCT2, the IC50 was roughly 2000 µM. The steady-state concentration in data set [2] was 1.8 µg/mL and 13 µM.
For `C[C@]12C[C@H](O)[C@H]3[C@@H](CCC4=CC(=O)CC[C@@]43C)[C@@H]1CC[C@@H]2C(=O)CO` [Corticosterone], the “toxicity to cells (MTS cell viability)” value in the data set on mouse primary astrocytes and in the data set with bEnd.3 cells (setting [4]) was “not toxic” each time. The figures for the concentration for half-maximal inhibition (IC50) with Oct-1, in the data set on Oct-2 and with Oct-3 were 3.2 µM, 1.3 µM and 0.2 µM, respectively.
As to `O=C1c2c(O)ccc(O)c2C(=O)c2c(NCCNCCO)ccc(NCCNCCO)c21` [Mitoxantrone], the “toxicity to cells (MTS cell viability)” value in the data set on mouse primary astrocytes and in the data set with bEnd.3 cells (setting [4]) was “not toxic” throughout. Further, in the data set with Oct-1 (estimated IC50), the “IC50 for Oct1 lower than for Oct2 and Oct3 (selectivity)” value was 40–60 fold. Moreover, in the data set on Oct-1 (mitoxantrone at 25 µM, based on Table 1), the “inhibition of the respective transporter (Oct1)” value is greater than 80%. Also, the IC50 is 3 µM in the data set on Oct-1, 135 µM with Oct-2 and 174 µM in the data set with Oct-3.
